Molecular target: T1, RORγ (Homo sapiens, UniProt P51449)
T1 construct: expressed in transfected cells; host or cells: 293FT cells (Invitrogen), expression vector pFN26A (Promega)
T1 sequence (P51449 269-508 limits assumed): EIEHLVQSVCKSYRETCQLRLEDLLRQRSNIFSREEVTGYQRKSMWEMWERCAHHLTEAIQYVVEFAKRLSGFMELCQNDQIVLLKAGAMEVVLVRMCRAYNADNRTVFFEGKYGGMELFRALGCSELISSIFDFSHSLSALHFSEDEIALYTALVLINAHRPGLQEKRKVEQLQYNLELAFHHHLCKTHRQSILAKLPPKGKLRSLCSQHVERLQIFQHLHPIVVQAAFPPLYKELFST
Experiment: RORγ GAL4 reporter gene assay (luciferase readout, 293FT cells)
Type: cell-based
Details: inhibition of RORγ (GAL4-RORγ-LBD) in transfected 293FT cells, luciferase signal, overnight incubation; read-out: mean pIC50 (converted)
Method: RORγ GAL4 Reporter Gene Assay
Example inhibitors 1-47 were tested for their ability to inhibit RORγ activity in a RORγ GAL4 reporter gene assay. The assay procedure and results are described below.
RORγ GAL4 Reporter Gene Assay Description
A GAL4 one-hybrid reporter system employing luciferase readout was established to determine inhibition of RORγ in 293FT cells. The RORγ ligand-binding domain (LBD) was fused to the yeast GAL4 DNA binding domain (DBD) and placed under the control of the human cytomegalovirus (CMV) immediate early promoter, using expression vector pFN26A (Promega) and standard recombinant DNA cloning methods. To serve as a control in the assay, a similar vector was generated in which the GAL4-DBD was fused to Herpes simplex virus protein 16 (VP16), a constitutive transcriptional activator.
To monitor the inhibitory effect of compounds on RORγ, a transcriptional reporter construct was used. The pGL4.35 vector (Promega) contains nine copies of the GAL4 Upstream Activator Sequence (UAS). This sequence drives the transcription of the luciferase reporter gene luc2P in response to binding of a fusion protein containing the GAL4 DNA binding domain, as for example expressed by the GAL4-RORγ-LBD and GAL4-VP16 expression vectors described above. To allow a GAL4 fusion protein to drive the expression of the luciferase reporter, the pGL4.35 expression vector and the appropriate GAL4 fusion protein expression vector were bulk transfected in the 293FT cells using standard transfection techniques.
The day after transfection, cells were plated into 96 well plates, test compound was added and the plates were incubated overnight. Subsequently, the firefly luciferase activity was quantified using luciferase detection reagent and luminescence readout.
Detailed Assay Description
293FT cells (Invitrogen) were transfected with a GAL4 fusion protein expression vector (as described above) and the transcriptional reporter construct (pGL4.35, Promega). 60 μL of TransIT-293 transfection reagent (Mirus Bio) was added drop wise to 1500 μl Opti-MEM I Reduced Serum Medium (Invitrogen) and incubated at room temperature (RT) for 5 to 20 minutes. 1500 μL of this reagent mixture was added to 5 μg of GAL4 fusion protein expression vector and 5 μg of the transcriptional reporter construct, and incubated at RT for 20 minutes.
To harvest 293FT cells from a T75 flask, first the culture medium was taken off the cells. Subsequently, the cells were washed with Phosphate Buffered Saline (PBS) (Lonza), after which the PBS was removed. To dissociate the cells, 1 ml of TrypLE Express (Invitrogen) was added to the flask, followed by incubation at RT until the cells visually started to detach. Cells were collected in 5 mL of assay medium (DMEM culture medium (Lonza), 10% dialyzed FBS (Invitrogen) and Pen/Strep (Lonza)) to achieve a single cell suspension. 10×10^6 cells were spun down and re-suspended in 10 mL of assay medium. Subsequently, the cell suspension was added to the transfection mix tube, and then transferred as a whole to a T75 flask (Greiner), followed by overnight (16-24 hours) incubation at 37° C. and 5% CO2.
For compound screening, the cells were harvested (as described above) and counted. 13×10^6 cells were spun down, the supernatant was aspirated and the cells were re-suspended in 17.3 mL of assay medium obtaining a cell suspension of 0.75×10^6 cells/mL. 80 μL of cell suspension (60,000 cells) was plated per well into a white, flat bottom, tissue culture treated, 96 well screening plates (Greiner).
Test compounds were diluted, starting from a 10 mM dimethylsulf oxide (DMSO) stock solution, to serial dilutions in DMSO at 500× the final test concentration. Subsequently, these solutions were diluted to 5× the final test concentration in two 10-fold-dilution steps in assay medium. The final DMSO concentration of the 5× test compound solution was 1%. […]

Compound	IC50
O=C(Cc1ccc(S(=O)(=O)CC2CC2)cc1)Nc1ccc(-c2ccccc2)c(Oc2ccccc2)c1 [Example 1, 2-(4-cyclopropylmethanesulfonylphenyl)-N-(3-phenoxy-4-phenylphenyl)acetamide]	≤ 1000 nM
COc1cccc(Oc2cc(NC(=O)Cc3ccc(S(=O)(=O)CC4CC4)cc3)ccc2-n2cnc(C)c2)c1 [Example 3, 2-(4-cyclopropylmethanesulfonylphenyl)-N-[3-(3-methoxyphenoxy)-4-(4-methyl-1H-imidazol-1-yl)phenyl]acetamide]	≤ 100 nM
COc1cccc(Oc2cc(NC(=O)Cc3ccc(S(=O)(=O)CC4CC4)cc3)ccc2-n2nccc2C)c1 [Example 7, 2-(4-cyclopropylmethanesulfonylphenyl)-N-[3-(3-methoxyphenoxy)-4-(5-methyl-1H-pyrazol-1-yl)phenyl]acetamide]	≤ 100 nM
COc1cccc(Oc2cc(NC(=O)Cc3ccc(S(=O)(=O)NC4CC4)cc3)ccc2-n2cnc(C)c2)c1 [Example 14, 2-[4-(cyclopropylsulfamoyl)phenyl]-N-[3-(3-methoxyphenoxy)-4-(4-methyl-1H-imidazol-1-yl)phenyl]acetamide]	≤ 1000 nM
O=C(Cc1ccc(S(=O)(=O)CC2CC2)cc1)Nc1nc(-c2ccccc2)c(Oc2ccccc2)s1 [Example 20, 2-(4-cyclopropylmethanesulfonylphenyl)-N-(5-phenoxy-4-phenyl-1,3-thiazol-2-yl)acetamide]	≤ 1000 nM
O=C(Cc1ccc(S(=O)(=O)CC2CC2)cc1)Nc1nc(-c2ccccc2)c(Oc2cccnc2)s1 [Example 21, 2-(4-cyclopropylmethanesulfonylphenyl)-N-[4-phenyl-5-(pyridin-3-yloxy)-1,3-thiazol-2-yl]acetamide]	≤ 1000 nM
O=C(Cc1ccc(S(=O)(=O)CC2CC2)cc1)Nc1nc(-c2ccccc2)c(C(=O)c2ccccc2)s1 [Example 22, N-(5-benzoyl-4-phenyl-1,3-thiazol-2-yl)-2-(4-cyclopropylmethanesulfonylphenyl)acetamide]	≤ 100 nM
O=C(Cc1ccc(S(=O)(=O)CC2CC2)cc1)Nc1nc(-c2cccc(Cl)c2)c(C(=O)c2ccc(Cl)cc2)s1 [Example 23, N-[5-(4-chlorobenzoyl)-4-(3-chlorophenyl)-1,3-thiazol-2-yl]-2-(4-cyclopropylmethanesulfonylphenyl)acetamide]	≤ 100 nM
O=C(Cc1ccc(S(=O)(=O)CC2CC2)cc1)Nc1cc(-c2ccccc2)cs1 [Example 24, 2-(4-cyclopropylmethanesulfonylphenyl)-N-(4-phenylthiophen-2-yl)acetamide]	≤ 1000 nM
O=C(Cc1ccc(S(=O)(=O)CC2CC2)cc1)Nc1cc(-c2cccnc2)cs1 [Example 25, 2-(4-cyclopropylmethanesulfonylphenyl)-N-[4-(pyridin-3-yl)thiophen-2-yl]acetamide]	≤ 1000 nM
O=C(Cc1ccc(S(=O)(=O)NC2CC2)cc1)Nc1nc(-c2ccccc2)c(C(=O)c2ccccc2)s1 [Example 26, N-(5-benzoyl-4-phenyl-1,3-thiazol-2-yl)-2-[4-(cyclopropylsulfamoyl)phenyl]acetamide]	≤ 100 nM

Results, then the compound that gave them:

IC50	Compound
≤ 100 nM	COc1cccc(Oc2cc(NC(=O)Cc3ccc(S(=O)(=O)CC4CC4)cc3)ccc2-c2cccc(F)c2)c1 [Example 2, 2-(4-cyclopropylmethanesulfonylphenyl)-N-[4-(3-fluorophenyl)-3-(3-methoxyphenoxy)phenyl]acetamide]
≤ 100 nM	O=C(Cc1ccc(S(=O)(=O)CC2CC2)cc1)Nc1ccc(-c2cccc(F)c2)c(Oc2cccc(Cl)c2)c1 [Example 4, N-[3-(3-chlorophenoxy)-4-(3-fluorophenyl)phenyl]-2-(4-cyclopropylmethanesulfonylphenyl)acetamide]
≤ 100 nM	O=C(Cc1ccc(S(=O)(=O)CC2CC2)cc1)Nc1ccc(-c2ccc(F)c(F)c2)c(Oc2cccc(Cl)c2)c1 [Example 5, N-[3-(3-chlorophenoxy)-4-(3,4-difluorophenyl)phenyl]-2-(4-cyclopropylmethanesulfonylphenyl)acetamide]
≤ 100 nM	N#Cc1cccc(Oc2cc(NC(=O)Cc3ccc(S(=O)(=O)CC4CC4)cc3)ccc2-c2ccc(F)c(F)c2)c1 [Example 6, N-[3-(3-cyanophenoxy)-4-(3,4-difluorophenyl)phenyl]-2-(4-cyclopropylmethanesulfonylphenyl)acetamide]
≤ 100 nM	O=C(Cc1ccc(S(=O)(=O)CC2CC2)cc1)Nc1ccc(-c2cc(F)cc(F)c2)c(Oc2cccc(Cl)c2)c1 [Example 8, N-[3-(3-chlorophenoxy)-4-(3,5-difluorophenyl)phenyl]-2-(4-cyclopropylmethanesulfonylphenyl)acetamide]
≤ 100 nM	N#Cc1ccc(-c2ccc(NC(=O)Cc3ccc(S(=O)(=O)CC4CC4)cc3)cc2Oc2cccc(F)c2)cc1 [Example 9, N-[4-(4-cyanophenyl)-3-(3-fluorophenoxy)phenyl]-2-(4-cyclopropylmethanesulfonylphenyl)acetamide]
≤ 100 nM	N#Cc1cccc(-c2ccc(NC(=O)Cc3ccc(S(=O)(=O)CC4CC4)cc3)cc2Oc2cccc(Cl)c2)c1 [Example 10, N-[3-(3-chlorophenoxy)-4-(3-cyanophenyl)phenyl]-2-(4-cyclopropylmethanesulfonylphenyl)acetamide]
≤ 100 nM	O=C(Cc1ccc(S(=O)(=O)CC2CC2)cc1)Nc1ccc(-c2cccc(F)c2)c(Oc2cccc(C(F)(F)F)c2)c1 [Example 11, 2-(4-cyclopropylmethanesulfonylphenyl)-N-[4-(3-fluorophenyl)-3-[3-(trifluoromethyl)phenoxy]phenyl]acetamide]
≤ 100 nM	O=C(Cc1ccc(S(=O)(=O)CC2CC2)cc1)Nc1ccc(-c2ccc(F)cc2)c(Oc2cccc(F)c2)c1 [Example 12, 2-(4-cyclopropylmethanesulfonylphenyl)-N-[3-(3-fluorophenoxy)-4-(4-fluorophenyl)phenyl]acetamide]
≤ 100 nM	O=C(Cc1ccc(S(=O)(=O)CC2CC2)cc1)Nc1ccc(-c2cccc(F)c2)c(Oc2cc(F)cc(F)c2)c1 [Example 13, 2-(4-cyclopropylmethanesulfonylphenyl)-N-[3-(3,5-difluorophenoxy)-4-(3-fluorophenyl)phenyl]acetamide]
≤ 1000 nM	COc1cccc(Oc2cc(NC(=O)Cc3ccc(S(=O)(=O)NC4CC4)cc3)ccc2-c2cccc(F)c2)c1 [Example 16, 2-[4-(cyclopropylsulfamoyl)phenyl]-N-[4-(3-fluorophenyl)-3-(3-methoxyphenoxy)phenyl]acetamide]
≤ 1000 nM	O=C(Cc1ccc(S(=O)(=O)NC2CC2)cc1)Nc1ccc(-c2cccc(F)c2)c(Oc2cccc(Cl)c2)c1 [Example 17, N-[3-(3-chlorophenoxy)-4-(3-fluorophenyl)phenyl]-2-[4-(cyclopropylsulfamoyl)phenyl]acetamide]
≤ 1000 nM	O=C(Cc1ccc(S(=O)(=O)NC2CC2)cc1)Nc1ccc(-c2ccc(F)c(F)c2)c(Oc2cccc(Cl)c2)c1 [Example 18, N-[3-(3-chlorophenoxy)-4-(3,4-difluorophenyl)phenyl]-2-[4-(cyclopropylsulfamoyl)phenyl]acetamide]
≤ 1000 nM	O=C(Cc1ccc(S(=O)(=O)NC2CC2)cc1)Nc1ccc(-c2cccc(F)c2)c(Oc2cccc(C(F)(F)F)c2)c1 [Example 19, 2-[4-(cyclopropylsulfamoyl)phenyl]-N-[4-(3-fluorophenyl)-3-[3-(trifluoromethyl)phenoxy]phenyl]acetamide]

Source: US10259782B2, “ROR gamma (RORγ) modulators” (LEAD PHARMA HOLDING B.V., priority 2015, dated 2019)
